Tested on: KRAS PDC tumor spheroids (HUVEC+MSC), viability
Test: Anticancer human tumor 254851-301-R-J1-PDC patient-derived colon carcinoma cell line growth inhibition [KRAS2]
Details: for IC50: curve of first compound; for viability, T/C: stronger effect = lower value
Excerpt: Multicellular complex tumor spheroid response to RAS pathway inhibitors in combination with a targeted agents in patient-derived cell lines with oncogenic KRAS variants from multiple cancer types
A high-throughput screen of multi-cell type tumor spheroids was designed to identify active combinations of targeted small molecules and KRAS pathway inhibitors. Complex spheroids include a stromal component modeled by human endothelial cells (HUVEC) and fibroblasts modeled by human mesenchymal stem cells (MSCs). The concentration ranges selected for each drug and investigational agent were based upon clinically achievable concentrations if the clinical Cmax of the agent was known.
Compounds. The drugs and investigational agents: BI-3406 (NSC825286), BAY-293 (NSC824723), batoprotafib (TNO155; NSC825523), sotorasib (AMG 510; NSC818433), MRTX1257 (NSC819558), elimusertib (BAY 1895344; NSC800525), molibresib (GSK525762; NSC774829), temuterkib (LY3214996; NSC803410), venetoclax (NSC766270), alisertib (NSC759677), olaparib (NSC753686), talazoparib (NSC767125), erdafitinib (NSC781556), ipatasertib (NSC767898), cabozantinib (NSC761068), nintedanib (NSC756659), abemaciclib (NSC768073), docetaxel (NSC628503), trametinib (NSC758246), and sapanisertib (NSC764658) were obtained from the National Cancer Institute (NCI) Developmental Therapeutics Program Chemical Repository. The FDA-approved anticancer drug set is available from the Developmental Therapeutics Program. […] The stock solutions were prepared in dimethyl sulfoxide (DMSO, Sigma-Aldrich, St. Louis, MO, cat. D2650) at 800-fold the tested concentration and stored at -70 degrees C prior to their use. All drugs and investigational agents were tested over a range starting from a high concentration at or near the clinical Cmax and decreasing in half-log increments. If the clinical Cmax for an agent had not been determined, the highest concentration tested was 10 microM.
Cell Culture. All cells were maintained in an incubator at 37 degrees C and 5% CO2 with 95% humidity. The PDC lines were cultured according to standard operating procedures established by the NCI PDMR (https://pdmr.cancer.gov/sops/default.htm). Briefly, all PDCs were thawed and cultured in Matrigel-coated flasks prepared with a working solution of 1X Ham's F-12 nutrient mix, without supplementation (Invitrogen, Waltham, MA, cat. 11765054), 100 U/mL penicillin-streptomycin (Invitrogen, cat. 15140122), and 2.5% Matrigel (Corning Inc., Corning, NY, cat. 354248) for the first three passages. All PDCs were cultured in complete DMEM/F-12 media containing advanced DMEM/F-12 (Invitrogen, cat. 12634028), 4.9% defined fetal bovine serum, heat inactivated (HyClone Laboratories Inc., Logan, UT, cat. SH30070.03HI), 389 ng/mL hydrocortisone (Sigma-Aldrich, cat. H4001), 9.7 ng/mL human EGF recombinant protein (Invitrogen, cat. PHG0313), 23.4 microg/mL adenine (Sigma-Aldrich, cat. A2786), 97.3 U/mL penicillin-streptomycin (Invitrogen, cat. 15140122), 1.9 mM L-glutamine (Invitrogen, cat. 25030081), and 9.7 microM Y-27632 dihydrochloride (Tocris Bioscience, Bristol, United Kingdom, cat. 1254). The PDCs were cultured in complete DMEM/F12 media without 9.7 microM Y-27632 dihydrochloride for at least two passages prior to the screen. The established cell line HOP-62 was cultured in RPMI 1640 medium, HEPES (Invitrogen, cat. 22400105) with 10% defined fetal bovine serum (HyClone Laboratories Inc., cat. SH30070.03) and 2 mM L-glutamine (Invitrogen, cat. 25030081). The pooled donor HUVEC were cultured in endothelial cell growth medium 2 (PromoCell, Heidelberg, Germany, cat. C-22011) and the hMSC were cultured in mesenchymal stem cell growth medium 2 (PromoCell, cat. C-28009). For all experiments, HUVEC and hMSC were used at passages </=5, while the malignant cell lines were used at passages </=15. […]

[1] = second compound 0.1 µM, first compound 0.00316 µM
[2] = second compound 0.1 µM, first compound 0.01 µM
[3] = second compound 0.1 µM, first compound 0.0316 µM
[4] = second compound 0.1 µM, first compound 0.1 µM
[5] = second compound 0.316 µM, first compound 0.00316 µM
[6] = second compound 0.316 µM, first compound 0.01 µM
[7] = second compound 0.316 µM, first compound 0.0316 µM
[8] = second compound 0.316 µM, first compound 0.1 µM
[9] = second compound 1 µM, first compound 0.00316 µM
[10] = second compound 1 µM, first compound 0.01 µM
[11] = second compound 1 µM, first compound 0.0316 µM
[12] = second compound 1 µM, first compound 0.1 µM
[13] = second compound 3.16 µM, first compound 0.00316 µM
[14] = second compound 3.16 µM, first compound 0.01 µM
[15] = second compound 3.16 µM, first compound 0.0316 µM
[16] = second compound 3.16 µM, first compound 0.1 µM
[17] = second compound 10 µM, first compound 0.00316 µM
[18] = second compound 10 µM, first compound 0.01 µM
[19] = second compound 10 µM, first compound 0.0316 µM
[20] = second compound 10 µM, first compound 0.1 µM
[21] = second compound 0.1 µM, first compound 0.316 µM
[22] = second compound 0.1 µM, first compound 1 µM
[23] = second compound 0.1 µM, first compound 3.16 µM
[24] = second compound 0.1 µM, first compound 10 µM
[25] = second compound 0.316 µM, first compound 0.316 µM
[26] = second compound 0.316 µM, first compound 1 µM
[27] = second compound 0.316 µM, first compound 3.16 µM
[28] = second compound 0.316 µM, first compound 10 µM
[29] = second compound 1 µM, first compound 0.316 µM
[30] = second compound 1 µM, first compound 1 µM
[31] = second compound 1 µM, first compound 3.16 µM
[32] = second compound 1 µM, first compound 10 µM
[33] = second compound 3.16 µM, first compound 0.316 µM
[34] = second compound 3.16 µM, first compound 1 µM
[35] = second compound 3.16 µM, first compound 3.16 µM
[36] = second compound 3.16 µM, first compound 10 µM
[37] = second compound 10 µM, first compound 0.316 µM
[38] = second compound 10 µM, first compound 1 µM
[39] = second compound 10 µM, first compound 3.16 µM
[40] = second compound 10 µM, first compound 10 µM
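Further: spheroids exposed to compounds for seven days before readout.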
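Wherever viability, T/C is given: 100% = DMSO vehicle control luminescence of the spheroids.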

SMILES	IC50 (second compound 0.1 µM) [nM]	IC50 (second compound 0.316 µM) [nM]	IC50 (second compound 1 µM) [nM]	IC50 (second compound 3.16 µM) [nM]	IC50 (second compound 10 µM) [nM]	viability, T/C [3] [%]	viability, T/C [4] [%]	viability, T/C [7] [%]	viability, T/C [8] [%]	viability, T/C [11] [%]	viability, T/C [12] [%]	viability, T/C [15] [%]	viability, T/C [16] [%]	viability, T/C [19] [%]	viability, T/C [20] [%]	viability, T/C [21] [%]	viability, T/C [22] [%]	viability, T/C [25] [%]	viability, T/C [26] [%]	viability, T/C [29] [%]	further results
Cn1ncnc1[C@H]1c2n[nH]c(=O)c3cc(F)cc(c23)N[C@@H]1c1ccc(F)cc1 + CNCc1ccccc1-c1csc(C(C)Nc2nc(C)nc3cc(OC)c(OC)cc23)c1	> 100	> 100	> 100	> 100	< 0.316	95.6	93.6	94.5	92.5	86.9	95.2	67.9	63.6	0.22	0.23	–	–	–	–	–	viability, T/C (second compound 0.1 µM, first compound 0.000316 µM): 94.9%; viability, T/C (second compound 0.1 µM, first compound 0.001 µM): 90.7%; viability, T/C [1]: 92.4%; viability, T/C [2]: 96.9%; viability, T/C (second compound 0.316 µM, first compound 0.000316 µM): 90.6%; viability, T/C (second compound 0.316 µM, first compound 0.001 µM): 95.6%; viability, T/C [5]: 98.8%; viability, T/C [6]: 85.4%; viability, T/C (second compound 1 µM, first compound 0.000316 µM): 101%; viability, T/C (second compound 1 µM, first compound 0.001 µM): 97.8%; viability, T/C [9]: 93.9%; viability, T/C [10]: 84%; viability, T/C (second compound 3.16 µM, first compound 0.000316 µM): 66.3%; viability, T/C (second compound 3.16 µM, first compound 0.001 µM): 65%; viability, T/C [13]: 64.3%; viability, T/C [14]: 63.7%; viability, T/C (second compound 10 µM, first compound 0.000316 µM): 0.23%; viability, T/C (second compound 10 µM, first compound 0.001 µM): 0.23%; viability, T/C [17]: 0.25%; viability, T/C [18]: 0.21%
COc1cc2nccc(Oc3ccc(NC(=O)C4(C(=O)Nc5ccc(F)cc5)CC4)cc3)c2cc1OC + CC1OCC2(CCN(c3cnc(Sc4ccnc(N)c4Cl)c(N)n3)CC2)C1N	9270	9860	6690	> 10000	6020	100	103	98.7	112	85.2	92.4	69.7	84.4	77.8	75.6	95.6	112	100	90.5	91.7	viability, T/C [23]: 102%; viability, T/C [24]: 46.3%; viability, T/C [27]: 84.4%; viability, T/C [28]: 48.7%; viability, T/C [30]: 80.3%; viability, T/C [31]: 71.6%; viability, T/C [32]: 38.7%; viability, T/C [33]: 82.3%; viability, T/C [34]: 72.1%; viability, T/C [35]: 62.3%; viability, T/C [36]: 56.5%; viability, T/C [37]: 74.4%; viability, T/C [38]: 68.1%; viability, T/C [39]: 63.9%; viability, T/C [40]: 40.2%
CCN1CCN(Cc2ccc(Nc3ncc(F)c(-c4cc(F)c5nc(C)n(C(C)C)c5c4)n3)nc2)CC1 + CC1OCC2(CCN(c3cnc(Sc4ccnc(N)c4Cl)c(N)n3)CC2)C1N	526	483	336	48.2	100	99.2	92.4	87.5	75.5	81.2	69.2	56.6	44	54.8	51.3	61.7	35.3	62.6	30.6	52.5	viability, T/C [1]: 94.5%; viability, T/C [2]: 92.5%; viability, T/C [5]: 93.9%; viability, T/C [6]: 91.2%; viability, T/C [9]: 82.7%; viability, T/C [10]: 94.3%; viability, T/C [30]: 28.8%; viability, T/C [13]: 54.2%; viability, T/C [14]: 49.7%; viability, T/C [33]: 28.6%; viability, T/C [34]: 26.8%; viability, T/C [17]: 62.5%; viability, T/C [18]: 65.8%; viability, T/C [37]: 35.5%; viability, T/C [38]: 13.5%
CC1(C)CCC(CN2CCN(c3ccc(C(=O)NS(=O)(=O)c4ccc(NCC5CCOCC5)c([N+](=O)[O-])c4)c(Oc4cnc5[nH]ccc5c4)c3)CC2)=C(c2ccc(Cl)cc2)C1 + CC1OCC2(CCN(c3cnc(Sc4ccnc(N)c4Cl)c(N)n3)CC2)C1N	> 10000	> 10000	> 10000	5560	2510	100	104	83.8	91	85.1	89.5	65.3	73.9	64.1	66.1	96.7	100	84.3	84.1	78.6	viability, T/C [23]: 97.1%; viability, T/C [24]: 98.4%; viability, T/C [27]: 84.3%; viability, T/C [28]: 65.7%; viability, T/C [30]: 88.6%; viability, T/C [31]: 80.7%; viability, T/C [32]: 54%; viability, T/C [33]: 65.3%; viability, T/C [34]: 69%; viability, T/C [35]: 66.3%; viability, T/C [36]: 33%; viability, T/C [37]: 69.8%; viability, T/C [38]: 62.2%; viability, T/C [39]: 46.6%; viability, T/C [40]: 3.55%

Source: PubChem BioAssay AID1963868 (Molecular Pharmacology Branch, DTP, NCI, 2024)
